This is an account of results in article PMC6009867, “Microwave-assisted synthesis and bioevaluation of new sulfonamides” (Journal of Enzyme Inhibition and Medicinal Chemistry, 2017).

A short description of series [1]: Cytotoxicity assay (MTT), HGF cells. Format: cell-based. Conditions: human, gingival fibroblasts (HGF), normal oral cells. The protocol: (§1) The cytotoxicity of the compounds were assayed toward human oral squamous cell carcinoma cell lines derived from gingiva tissue (CA9–22) and tongue (HSC-2, HSC-3, HSC-4), and human normal oral cells (gingival fibroblasts, HGF; periodontal ligament fibroblasts, HPLF; pulp cells, HPC) with some minor modifications[16]^,[17]^,[26]^,[30–33]. In brief, cells were cultured in DMEM supplemented with 10% fetal bovine serum (FBS). Cells (2.5 × 10^3 cells/well) were inoculated and incubated for 48 h to achieve complete adherence. Near confluent cells were incubated for a further 48 h in the fresh culture medium containing each test compound (3.12, 6.25, 12.5, 25, 50, 100, 200, 400 μM) or 5-FU (positive control) (7.8, 15.6, 31.2, 62.5, 125, 250, 500, 1000 μM). The viable cell numbers were determined by the MTT method. Cytotoxicity induced by DMSO (0.0078, 0.0156, 0.03125, 0.0625, 0.125, 0.25, 0.5 or 1%) was subtracted from each well. The CC50 values were determined from the dose-response curves. The tumor selectivity (TS) was calculated by the following equation: TS = mean CC50 against normal cells/mean CC50 against cancer cells [shown as (D/B) or (C/A) in Table 1]. A potency selectivity expression (PSE) was calculated by multiplying the reciprocal of average CC50 values toward cancer cell lines and the average SI values toward these cell lines and expressed as a percentage [PSE = (D/B^2) × 100].

Series [2] can be described thus: Cytotoxicity assay (MTT), HPC cells. It counts as cell-based. Conditions: human, pulp cells (HPC), normal oral cells. The procedure:
as §1

A short description of series [3]: Cytotoxicity assay (MTT), mean over three normal oral cells. Format: cell-based. The settings on record: human; mean of HGF, HPLF, HPC; read-out: (D) Mean CC50, human normal oral cells. The protocol: as §1
The subject of series [4] is HSC-2 (human oral squamous cell carcinoma, tongue). As to the kind of experiment: Cytotoxicity assay (MTT), HSC-2 cells. Format: cell-based. The settings on record: for CC50: Homo sapiens, HSC-2, 48 h, MTT; for SI HSC-2: average CC50 of nonmalignant cells / CC50 toward HSC-2. The protocol: as §1
The test system of series [5] is HSC-3 (human oral squamous cell carcinoma, tongue). As to the kind of experiment: Cytotoxicity assay (MTT), HSC-3 cells. The settings on record: for CC50: Homo sapiens, HSC-3, 48 h, MTT; for SI HSC-3: average CC50 of nonmalignant cells / CC50 toward HSC-3. It counts as cell-based. The procedure:
as §1

In another series the target is hCA I (Homo sapiens, UniProt P00915). As to the kind of experiment: Carbonic anhydrase inhibition assay (esterase activity, 348 nm), hCA I. It counts as biochemical. The settings on record: for Ki: Lineweaver-Burk, three concentrations; for IC50: from activity (%) versus compound plots; for times more potent than AZA toward hCA I: in terms of IC50 values.
Chain of hCA I (P00915 whole entry): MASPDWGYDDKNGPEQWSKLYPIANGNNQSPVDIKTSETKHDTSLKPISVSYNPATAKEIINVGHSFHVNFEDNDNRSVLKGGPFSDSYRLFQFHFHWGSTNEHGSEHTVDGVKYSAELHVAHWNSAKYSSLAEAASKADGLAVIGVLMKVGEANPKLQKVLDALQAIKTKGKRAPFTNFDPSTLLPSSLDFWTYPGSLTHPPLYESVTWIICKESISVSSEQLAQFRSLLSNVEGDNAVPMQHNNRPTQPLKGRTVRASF
The subject of series [6] is HSC-4 (human oral squamous cell carcinoma, tongue). The series is described as follows: Cytotoxicity assay (MTT), HSC-4 cells. Format: cell-based. The settings on record: for CC50: Homo sapiens, HSC-4, 48 h, MTT; for SI HSC-4: average CC50 of nonmalignant cells / CC50 toward HSC-4. The protocol: as §1
Series [7] concerns Ca9-22 (human oral squamous cell carcinoma, gingiva). The series is described as follows: Cytotoxicity assay (MTT), Ca9-22 cells. It counts as cell-based. The settings on record: for TS (C/A): CC50 HGF / CC50 Ca9-22; for times of potency versus 5-FU toward Ca9-22: CC50 ratio to reference 5-FU; for CC50: Homo sapiens, Ca9-22, 48 h, MTT, triplicate wells; for SI Ca9-22: average CC50 of nonmalignant cells / CC50 toward Ca9-22. The protocol: as §1

Series [8] concerns Human oral squamous cell carcinoma cells. The series is described as follows: Cytotoxicity assay (MTT), mean over four OSCC cell lines. It counts as cell-based. Conditions: for CC50: Homo sapiens, mean of Ca9-22, HSC-2, HSC-3, HSC-4, read-out: (B) Mean CC50, human oral squamous cell carcinoma cells; for TS (D/B): mean CC50 normal cells / mean CC50 OSCC cells; for PSE (D/B^2) × 100: potency selectivity expression, expressed as a percentage. The procedure: as §1

Series [9] is described as follows: Cytotoxicity assay (MTT), HPLF cells. The settings on record: human, periodontal ligament fibroblasts (HPLF), normal oral cells. Format: cell-based. The protocol:
as §1

For the next series, the target named is hCA II (Homo sapiens, UniProt P00918). The series is described as follows: Carbonic anhydrase inhibition assay (esterase activity, 348 nm), hCA II. The settings on record: for Ki: Lineweaver-Burk, three concentrations; for IC50: from activity (%) versus compound plots; for times more potent than AZA toward hCA II: in terms of IC50 values. It counts as biochemical.

As usually defined, the CC50 is the concentration at which the toxic effect on the cells reaches its halfway point. The term Ki denotes a measure of affinity in units of concentration, obtained from inhibition or displacement. Low values mean tighter binding, high ones weaker binding. As usually defined, the IC50 is the point on the concentration scale where inhibition reaches its midpoint. A lower IC50 goes with greater potency. For the compound `NS(=O)(=O)c1ccc(N2N=C(c3ccc(Br)cc3)CC2c2ccc(O)cc2)cc1` (centres unmarked) [Compound 13, 4-[5-(4-Hydroxyphenyl)-3-(4-bromophenyl)-4,5-dihydro-1H-pyrazol-1-yl] benzenesulfonamide], the CC50 at 48 h in [1] turned out to be 34.7 µM. This compound returned a CC50 at 48 h in series [2] of 39.7 µM. In addition, in [3], the CC50 at 48 h stood at 34.7 µM. For the same compound, in series [4] (CC50 ratio to reference 5-FU, HSC-2), the “times of potency versus 5-FU toward HSC-2” value is reported as 1.2. In series [4], it took 37.7 µM to reach half-maximal cytotoxicity (CC50) and the “SI HSC-2” value came out at 0.9. In series [5], the midpoint of cytotoxicity, the CC50, lay at 34.7 µM and the “SI HSC-3” value turned out to be 1.0. Moreover, on hCA I, the Ki is 0.00373 ± 0.00091 µM, the IC50 turned out to be 0.00422 µM and the “times more potent than AZA toward hCA I” value was found to be 45.1. Also, in series [6], the CC50 came to 25.7 µM and the “SI HSC-4” value is given as 1.4. Further, in [7], the “TS (C/A)” value is 1.7; the “times of potency versus 5-FU toward Ca9-22” value is listed as 4.8; the midpoint of cytotoxicity, the CC50, lay at 20.7 µM; the “SI Ca9-22” value came out at 1.7. Moreover, in series [8], the 50% cytotoxic concentration (CC50) was found to be 29.7 µM, the “TS (D/B)” value was 1.2 and the “PSE (D/B^2) × 100” value stood at 3.9. The compound also yielded a 50% cytotoxic concentration (CC50) at 48 h in series [9] of 29.7 µM. On hCA II, the affinity, expressed as Ki, was 0.00456 ± 0.00108 µM; the IC50 was found to be 0.00465 µM; the “times more potent than AZA toward hCA II” value amounted to 42.9.
The compound `NS(=O)(=O)c1ccc(N2N=C(c3cccs3)CC2c2ccc(O)cc2)cc1` (centres unmarked) [Compound 14, 4-[5–(4-Hydroxyphenyl)-3-(thiophen-2-yl)-4,5-dihydro-1H-pyrazol-1-yl] benzenesulfonamide] yielded a CC50 at 48 h in series [1] of 88.3 µM. In series [2], this compound had a CC50 at 48 h of 87.3 µM. Moreover, the CC50 at 48 h in series [3] amounted to 82.9 µM. In series [4], half-maximal cytotoxicity (CC50) was put at 55 µM and the “SI HSC-2” value is on record as 1.5. In addition, in series [5], it took 61.3 µM to reach half-maximal cytotoxicity (CC50) and the “SI HSC-3” value is reported as 1.4. Further, on hCA I, affinity was put at a Ki of 0.00417 ± 0.00093 µM, the IC50 was found to be 0.00513 µM and the “times more potent than AZA toward hCA I” value was determined as 37.1. Further, in series [6], it took 55.3 µM to reach half-maximal cytotoxicity (CC50) and the “SI HSC-4” value is given as 1.5. Further, in series [7], the “TS (C/A)” value was 1.9, the “times of potency versus 5-FU toward Ca9-22” value stood at 2.2, the CC50 came to 45.7 µM and the “SI Ca9-22” value is listed as 1.8. Further, in series [8], the CC50 came to 54.3 µM, the “TS (D/B)” value stood at 1.5 and the “PSE (D/B^2) × 100” value came to 2.8. Also, half-maximal cytotoxicity in series [9] (CC50 at 48 h) was put at 73 µM. Also, on hCA II, the Ki amounted to 0.00385 ± 0.00057 µM, the IC50 came to 0.00545 µM and the “times more potent than AZA toward hCA II” value is on record as 36.6.
